Test results: ChEMBL document CHEMBL1124763, “Nucleoside conjugates. 11. Synthesis and antitumor activity of 1-beta-D-arabinofuranosylcytosine and cytidine conjugates of thioether lipids” (1990)

Columns and labels:
[1] = tested on: Mus musculus; experiment: Increase of life span was determined against Ip implanted L1210 / ara-C (II) lymphoid leukemia in mice at a dose of 300 mg/kg per day; assay type: functional; conditions: route intraperitoneal
[2] = tested on: Mus musculus; experiment: Increase of life span was determined against Ip implanted L1210 / ara-C (I) lymphoid leukemia in mice at a dose of 80 mg/kg per day; assay type: functional; conditions: route intraperitoneal
[3] = tested on: Mus musculus; experiment: Survival time treated for antitumor activity against Ip implanted L1210 / 0 lymphoid leukemia in mice at a dose of 400 mg/kg per day after treatment -1;21.5/7; conditions: route intraperitoneal
[4] = tested on: Mus musculus; experiment: Survival time treated for antitumor activity against Ip implanted L1210 / 0 lymphoid leukemia in mice at a dose of 200 mg/kg per day after treatment 1,15;27.5/7; conditions: route intraperitoneal
[5] = tested on: Mus musculus; experiment: Range of survival days for antitumor activity against Ip implanted L1210 / 0 lymphoid leukemia in mice at a dose of 100 mg/kg per day after treatment 1,5,9;range is 18-29; assay type: functional; conditions: route intraperitoneal
[6] = tested on: Mus musculus; experiment: Survival time treated for antitumor activity against Ip implanted L1210 / 0 lymphoid leukemia in mice at a dose of 100 mg/kg per day after treatment 1,8,15,22;24/7; conditions: route intraperitoneal
[7] = tested on: Mus musculus; experiment: Survival time treated for antitumor activity against Ip implanted L1210 / 0 lymphoid leukemia in mice at a dose of 400 mg/kg per day;>42.5/7; conditions: route intraperitoneal
[8] = tested on: Mus musculus; experiment: Increase of life span was determined against Ip implanted L1210 / ara-C (I) lymphoid leukemia in mice at a dose of 133 mg/kg per day; assay type: functional; conditions: route intraperitoneal
[9] = tested on: Mus musculus; experiment: Increase of life span was determined against Ip implanted L1210 / 0 lymphoid leukemia in mice at a dose of 100 mg/kg per day after treatment 1,8,15,22; assay type: functional; conditions: L1210/0, ip, route intraperitoneal
[10] = tested on: Mus musculus; experiment: Increase of life span was determined against Ip implanted L1210 / 0 lymphoid leukemia in mice at a dose of 400 mg/kg per day; assay type: functional; conditions: L1210/0, ip, route intraperitoneal
[11] = tested on: Mus musculus; experiment: Range of survival days for antitumor activity against Ip implanted L1210 / ara-C (I) lymphoid leukemia in mice at a dose of 133 mg/kg per day; assay type: functional; conditions: route intraperitoneal
[12] = tested on: Mus musculus; experiment: Median survival time for antitumor activity against Ip implanted L1210 / ara-C (I) lymphoid leukemia in mice at a dose of 133 mg/kg per day; conditions: route intraperitoneal
[13] = tested on: Mus musculus; experiment: Range of survival days for antitumor activity against Ip implanted L1210 / ara-C (I) lymphoid leukemia in mice at a dose of 400 mg/kg per day; assay type: functional; conditions: route intraperitoneal
[14] = tested on: Mus musculus; experiment: Increase of life span was determined against Ip implanted L1210 / 0 lymphoid leukemia in mice at a dose of 200 mg/kg per day after treatment 1; assay type: functional; conditions: L1210/0, ip, route intraperitoneal
[15] = tested on: Mus musculus; experiment: Increase of life span was determined against Ip implanted L1210 / 0 lymphoid leukemia in mice at a dose of 400 mg/kg per day after treatment 1; assay type: functional; conditions: L1210/0, ip, route intraperitoneal
[16] = tested on: Mus musculus; experiment: Range of survival days for antitumor activity against Ip implanted L1210 / 0 lymphoid leukemia in mice at a dose of 200 mg/kg per day after treatment 1,15;range is 22-32; assay type: functional; conditions: route intraperitoneal
[17] = tested on: Mus musculus; experiment: Range of survival days for antitumor activity against Ip implanted L1210 / 0 lymphoid leukemia in mice at a dose of 400 mg/kg per day after treatment 5;range is 12-16; assay type: functional; conditions: route intraperitoneal
[18] = tested on: Mus musculus; experiment: Range of survival days for antitumor activity against Ip implanted L1210 / 0 lymphoid leukemia in mice at a dose of 400 mg/kg per day after treatment 2;range is 12-26; assay type: functional; conditions: route intraperitoneal
[19] = tested on: Mus musculus; experiment: Survival time of treated mice for antitumor activity against Ip implanted L1210 / 0 lymphoid leukemia in mice at a dose of 400 mg/kg per day after treatment 1;29.5/7; conditions: route intraperitoneal
[20] = tested on: Mus musculus; experiment: Increase of life span was determined against Ip implanted L1210 / 0 lymphoid leukemia in mice at a dose of 200 mg/kg per day after treatment 1,8,15,22; assay type: functional; conditions: L1210/0, ip, route intraperitoneal

`CCCCCCCCCCCCCCCCCCSCC(COP(=O)(O)OP(=O)(O)OC[C@H]1O[C@@H](n2ccc(N)nc2=O)[C@@H](O)[C@@H]1O)OC(=O)CCCCCCCCCCCCCCC` (mixture of isomers) was tested, and the ILS at 300 mg/kg/day [1] was 0%, the ILS at 80 mg/kg/day [2] was greater than 350% and the survival time [3] was 21.5 days. For the same compound, the survival time [4] was 27.5 days, the “Range of survival days” value [5] was 18 and the survival time [6] was 24 days. For the same compound, the survival time [7] was greater than 42.5 days, the ILS at 133 mg/kg/day [8] was greater than 350% and the ILS at 100 mg/kg/day [9] was 243%. The ILS at 400 mg/kg/day [10] was greater than 507%, the Range [11] was greater than 45 and the median survival time [12] was greater than 45 days. It also gave a Range [13] greater than 45, an ILS at 200 mg/kg/day [14] of 357% and an ILS at 400 mg/kg/day [15] of 321%. The “Range of survival days” value [16] was 22, the “Range of survival days” value [17] was 12 and the “Range of survival days” value [18] was 12. The survival time [19] was 29.5 days and the ILS at 200 mg/kg/day [20] was 250%.
